In brackets after ≈: the same amount, converted by molar mass.
Tests used:
Assay in all cases: MIC, microdilution broth method (NCCLS)
Format in all cases: cell-based
S. aureus ATCC29213 = details: Staphylococcus aureus, cation adjusted Mueller-Hinton broth, 16-20 hours
Method: (§1) Minimum inhibitory concentration (MIC) has been an indicator of in vitro antibacterial activity widely used in the art. The in vitro antimicrobial activity of the compounds was determined by the microdilution broth method following the test method from the National Committee for Clinical Laboratory Standards (NCCLS). This method is described in the NCCLS Document M7-A4, Vol. 17, No.2, “Methods for Dilution Antimicrobial Susceptibility Test for Bacteria that Grow Aerobically—Fourth Edition”, which is incorporated herein by reference. In this method two-fold serial dilutions of drug in cation adjusted Mueller-Hinton broth are added to wells in microdilution trays. The test organisms are prepared by adjusting the turbidity of actively growing broth cultures so that the final concentration of test organism after it is added to the wells is approximately 5×10^4 CFU/well. Following inoculation of the microdilution trays, the trays are incubated at 35 °C for 16-20 hours and then read. […] The amount of growth in the wells containing the test compound is compared with the amount of growth in the growth-control wells (no test compound) used in each tray. As set forth in Table 1, compounds of the present invention were tested against a variety of Gram positive and Gram negative pathogenic bacteria resulting in a range of activities depending on the organism tested.

S. pneumoniae ATCC49619 = details: Streptococcus pneumoniae, cation adjusted Mueller-Hinton broth, 16-20 hours, read-out: MIC Values, C: S. pneumoniae ATCC49619
Method: as §1

E. faecalis ATCC29212 = details: Enterococcus faecalis, cation adjusted Mueller-Hinton broth, 16-20 hours, read-out: MIC Values, B: E. faecalis ATCC29212
Method: as §1

H. influenzae ATCC49247 = details: Haemophilus influenzae, cation adjusted Mueller-Hinton broth, 16-20 hours, read-out: MIC Values, D: H. influenzae ATCC49247
Method: as §1

MIC (S. aureus ATCC29213) [µg/mL] | MIC (S. pneumoniae ATCC49619) [µg/mL] | MIC (E. faecalis ATCC29212) [µg/mL] | MIC (H. influenzae ATCC49247) [µg/mL] | Structure (SMILES)
0.25 (≈ 0.292 µM) | ≤ 0.015 | 0.12 (≈ 0.14 µM) | 2 (≈ 2.34 µM) | CC[C@H]1OC(=O)[C@H](C)C(=O)[C@H](C)[C@@H](O[C@@H]2O[C@H](C)C[C@H](N(C)C)[C@H]2O)[C@](C)(OC(=O)OC/C=C/c2ccc(Br)nc2)C[C@@H](C)C(=O)[C@H](C)[C@H]2NC(=S)O[C@@]21C [Compound 10]
0.5 (≈ 0.587 µM) | 0.12 (≈ 0.141 µM) | 0.25 (≈ 0.293 µM) | 2 (≈ 2.35 µM) | CC[C@H]1OC(=O)[C@H](C)C(=O)[C@H](C)[C@@H](O[C@@H]2O[C@H](C)C[C@H](N(C)C)[C@H]2O)[C@](C)(OC(=O)NC/C=C/c2ccc(-c3cccnn3)cc2)C[C@@H](C)C(=O)[C@H](C)[C@H]2NC(=S)O[C@@]21C [Compound 4]
0.5 (≈ 0.593 µM) | 0.03 (≈ 0.0356 µM) | 0.12 (≈ 0.142 µM) | 1 (≈ 1.19 µM) | CC[C@H]1OC(=O)[C@H](C)C(=O)[C@H](C)[C@@H](O[C@@H]2O[C@H](C)C[C@H](N(C)C)[C@H]2O)[C@](C)(OC(=O)NC/C(F)=C/c2cnc3ccccc3c2)C[C@@H](C)C(=O)[C@H](C)[C@H]2NC(=S)O[C@@]21C [Compound 12]
0.12 (≈ 0.145 µM) | – | 0.06 (≈ 0.0726 µM) | 2 (≈ 2.42 µM) | CC[C@H]1OC(=O)[C@H](C)C(=O)[C@H](C)[C@@H](O[C@@H]2O[C@H](C)C[C@H](N(C)C)[C@H]2O)[C@](C)(OC(=O)OC/C=C/c2cnc3ccccc3c2)C[C@@H](C)C(=O)[C@H](C)[C@H]2NC(=S)O[C@@]21C [Compound 9]
0.5 (≈ 0.613 µM) | ≤ 0.015 | 0.06 (≈ 0.0735 µM) | 1 (≈ 1.23 µM) | CC[C@H]1OC(=O)[C@H](C)C(=O)[C@H](C)[C@@H](O[C@@H]2O[C@H](C)C[C@H](N(C)C)[C@H]2O)[C@](C)(OC(=O)NC/C=C/c2cnc(C3CC3)nc2)C[C@@H](C)C(=O)[C@H](C)[C@H]2NC(=S)O[C@@]21C [Compound 7]
0.25 (≈ 0.303 µM) | ≤ 0.015 | 0.06 (≈ 0.0727 µM) | 1 (≈ 1.21 µM) | CC[C@H]1OC(=O)[C@H](C)C(=O)[C@H](C)[C@@H](O[C@@H]2O[C@H](C)C[C@H](N(C)C)[C@H]2O)[C@](C)(OC(=O)NC/C=C/c2cnc3ccccc3c2)C[C@@H](C)C(=O)[C@H](C)[C@H]2NC(=S)O[C@@]21C [Compound 5]
0.5 (≈ 0.586 µM) | ≤ 0.015 | 0.06 (≈ 0.0703 µM) | 1 (≈ 1.17 µM) | CC[C@H]1OC(=O)[C@H](C)C(=O)[C@H](C)[C@@H](O[C@@H]2O[C@H](C)C[C@H](N(C)C)[C@H]2O)[C@](C)(OC(=O)NC/C=C/c2ccc(Br)nc2)C[C@@H](C)C(=O)[C@H](C)[C@H]2NC(=S)O[C@@]21C [Compound 6]
